The nature of data set [1]: Glucose excursion after intraperitoneal glucose (glucose tolerance). The data set is classed as in vivo. The conditions noted are these: 12 hr fasted 20 week-old mice on chow diet or HFD, 25 mg/(kg*day), i.p. glucose 2 g/kg, FIG. 7. As for the experimental part: Glucose excursion curves were determined after an intraperitoneal injection of glucose (2 g/kg) on 12 hr fasted 20 week-old mice fed a chow diet or a HFD, supplemented with either water (Veh) or Quinic Acid (25 mg/(kg*day).

Data set [2] is described as follows: Glucose excursion after intraperitoneal insulin (insulin response). The note with it: 6 hr fast, 25 mg/(kg*day). The data set is classed as in vivo, mice. The method, then: Glucose excursion curves were determined after an intraperitoneal injection of insulin (0.3 U/Kg) after a 6 hr fast on 22 week-old mice fed a chow diet, supplemented with either water (Veh) or Quinic Acid (25 mg/(kg*day). Glucose excursion curves were determined after an intraperitoneal injection of insulin (0.75 U/Kg) after a 6 hr fast on 22 week-old mice fed a high-fat diet, supplemented with either water (Veh) or Quinic Acid (25 mg/(kg*day).

In a further data set the test system is maltase. The conditions noted are these: enzyme involved in digestion of carbohydrates; cited from earlier work.
The nature of data set [3]: Treadmill endurance, increasing speed protocol. The note with it: 26 week-old high-fat fed mice, 25 mg/(kg*day), FIG. 11. The data set is classed as in vivo. As for the experimental part: 26 week-old mice were place on a treadmill and endurance was evaluated by using a increasing speed protocol, as described previously (Lagouge et al., 2006, PMID: 17112576). The tests were performed on low and high fat-fed mice supplemented with either water (Veh) or Quinic Acid (25 mg/(kg*day).

A short description of data set [4]: Oxygen consumption and RER in CLAMS (indirect calorimetry). The note with it: 18 week-old mice on chow diet, 25 mg/(kg*day), dark phase, FIG. 6. The data set is classed as in vivo.
The nature of data set [5]: Rectal temperature in cold room (thermogenic function). The note with it: 24-week old mice on chow diet, 25 mg/(kg*day), cold room 6° C., no food, measured every hour, FIG. 10. The data set is classed as in vivo. As for the experimental part:
Rectal temperature was measured at 8 a.m. (t=0) on 24-week old mice fed a chow diet, supplemented with either water (Veh) or Quinic Acid (25 mg/(kg*day). Then, mice were placed on a cold room (6° C.), with no access to food, and rectal temperature was measured every hour.

The next data set has as its system lipase. The note with it: enzyme involved in digestion of lipids; cited from earlier work.
In a further data set the target is T1, α-amylase (Sus scrofa, UniProt P00690).
T1 sequence (P00690 16-511): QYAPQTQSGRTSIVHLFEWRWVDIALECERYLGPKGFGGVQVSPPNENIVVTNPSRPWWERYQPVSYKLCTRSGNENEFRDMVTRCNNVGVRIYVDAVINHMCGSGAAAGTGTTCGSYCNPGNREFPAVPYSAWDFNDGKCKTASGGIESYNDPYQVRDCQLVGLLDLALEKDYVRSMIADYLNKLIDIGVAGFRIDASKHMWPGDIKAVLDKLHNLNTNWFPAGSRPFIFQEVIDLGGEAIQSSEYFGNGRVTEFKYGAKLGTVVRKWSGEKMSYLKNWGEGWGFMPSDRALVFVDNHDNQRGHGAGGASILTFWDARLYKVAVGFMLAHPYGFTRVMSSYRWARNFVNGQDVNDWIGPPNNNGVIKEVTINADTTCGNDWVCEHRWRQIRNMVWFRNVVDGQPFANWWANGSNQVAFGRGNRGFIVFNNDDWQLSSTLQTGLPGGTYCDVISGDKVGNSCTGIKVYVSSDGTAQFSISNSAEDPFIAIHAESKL
The conditions noted are these: compared to caffeic and chlorogenic acids (Narita et al. 2009); cited from earlier work.

Data set [6] is described as follows: Food intake (tolerance / food aversion) of mice on supplemented diet. The data set is classed as in vivo. As for the experimental part: Mice were fed a low fat diet supplemented with either water (Veh) or quinic acid at low dose (25 mg/(kg*day)) or high dose (HD, 100 mg/(kg*day). Food intake was calculated between 12 and 18 weeks of age by weighing the food placed on the tray of the cage at the start of the week and the amount remaining 5 days later.
Mice were fed a high fat diet (60% fat) supplemented with either water (Veh) or quinic acid at low dose (25 mg/(kg*day)) or high dose (HD, 100 mg/(kg*day). Calculations for food intake were made in the same manner as for mice on chow diet.
Powder low fat diet (LFD; Research Diets Inc.; Ref: D12450J) was reconstituted into ˜20 gram pellets using 100 ml of water/kg of food. In addition to normal low fat diet pellets, two additional groups were made by adding quinic acid (QA) to the water used for reconstitution. A first group (low dose) was created, where 0.25 g of QA were added per Kg of food (this means, 0.25 grams per 100 ml of water). In a second group (high dose), 1 g of QA was added per Kg of food (this means, 1 gram per […] of water). […]
At 10 weeks of age, 60 male mice were randomly distributed in 6 groups (n=10 per group) and provided the different diets: LFD (Control, Low Dose and High Dose) or HFD (Control, Low Dose and High Dose). […] During this time, body weight and food intake was monitored weekly.

The target of a further data set is sucrase (Homo sapiens, UniProt P14410). The conditions noted are these: enzyme involved in digestion of carbohydrates; cited from earlier work.
sucrase, sequence (P14410 whole entry, species assumed): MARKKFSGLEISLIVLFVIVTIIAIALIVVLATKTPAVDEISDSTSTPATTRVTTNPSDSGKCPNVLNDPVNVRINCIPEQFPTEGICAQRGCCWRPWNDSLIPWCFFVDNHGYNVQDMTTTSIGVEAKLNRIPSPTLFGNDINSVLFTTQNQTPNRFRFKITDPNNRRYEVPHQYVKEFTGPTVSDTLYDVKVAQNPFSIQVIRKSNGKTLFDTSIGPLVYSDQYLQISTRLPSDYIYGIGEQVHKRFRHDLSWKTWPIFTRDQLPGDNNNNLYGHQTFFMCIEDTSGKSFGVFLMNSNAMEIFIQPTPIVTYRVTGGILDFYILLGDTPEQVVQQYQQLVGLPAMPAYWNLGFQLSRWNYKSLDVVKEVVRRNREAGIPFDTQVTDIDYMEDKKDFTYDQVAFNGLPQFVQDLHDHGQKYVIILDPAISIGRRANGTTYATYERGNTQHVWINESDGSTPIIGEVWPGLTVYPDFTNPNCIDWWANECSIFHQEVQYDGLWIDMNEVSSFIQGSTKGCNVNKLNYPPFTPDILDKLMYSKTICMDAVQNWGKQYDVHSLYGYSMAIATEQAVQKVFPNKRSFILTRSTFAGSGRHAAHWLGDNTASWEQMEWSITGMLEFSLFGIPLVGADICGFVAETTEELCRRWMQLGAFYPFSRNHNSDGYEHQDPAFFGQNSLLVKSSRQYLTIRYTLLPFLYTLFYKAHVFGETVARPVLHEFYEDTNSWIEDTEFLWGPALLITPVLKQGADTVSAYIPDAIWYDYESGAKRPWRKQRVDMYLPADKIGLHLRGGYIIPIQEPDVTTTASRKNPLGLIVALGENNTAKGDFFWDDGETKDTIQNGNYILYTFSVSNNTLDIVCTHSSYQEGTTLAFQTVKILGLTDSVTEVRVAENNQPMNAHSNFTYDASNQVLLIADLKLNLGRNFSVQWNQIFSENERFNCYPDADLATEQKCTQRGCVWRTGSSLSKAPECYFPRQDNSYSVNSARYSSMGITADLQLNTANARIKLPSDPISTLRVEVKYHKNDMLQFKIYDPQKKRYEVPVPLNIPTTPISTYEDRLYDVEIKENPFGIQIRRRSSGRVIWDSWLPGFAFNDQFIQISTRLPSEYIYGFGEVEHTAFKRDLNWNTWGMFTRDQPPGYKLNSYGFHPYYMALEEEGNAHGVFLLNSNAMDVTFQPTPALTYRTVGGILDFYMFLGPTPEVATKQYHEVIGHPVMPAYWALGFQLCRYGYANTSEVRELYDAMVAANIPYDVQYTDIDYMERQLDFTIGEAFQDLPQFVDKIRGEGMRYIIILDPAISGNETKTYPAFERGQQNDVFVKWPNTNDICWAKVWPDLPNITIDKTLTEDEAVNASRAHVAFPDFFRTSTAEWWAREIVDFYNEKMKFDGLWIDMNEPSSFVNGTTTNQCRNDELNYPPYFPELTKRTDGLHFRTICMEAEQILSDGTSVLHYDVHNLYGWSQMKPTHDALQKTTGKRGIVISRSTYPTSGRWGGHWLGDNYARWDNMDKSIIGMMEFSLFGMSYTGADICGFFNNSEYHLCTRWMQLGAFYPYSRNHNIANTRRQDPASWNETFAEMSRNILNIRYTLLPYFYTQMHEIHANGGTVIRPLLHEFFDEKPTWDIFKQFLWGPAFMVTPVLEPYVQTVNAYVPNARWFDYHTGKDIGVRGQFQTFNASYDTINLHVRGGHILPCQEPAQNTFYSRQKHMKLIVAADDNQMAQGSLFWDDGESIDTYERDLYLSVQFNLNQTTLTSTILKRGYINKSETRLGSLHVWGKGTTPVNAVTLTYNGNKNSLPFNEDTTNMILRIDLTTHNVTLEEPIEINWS
The nature of data set [7]: Body weight evolution on chow or high-fat diet. The note with it: 25 mg/(kg*day), FIG. 3. The data set is classed as in vivo, mice. As for the experimental part:
Body weight evolution on mice fed on chow diet or high-fat diet, supplemented with either water (Veh) or Quinic Acid (25 mg/(kg*day) was calculated. At 10 weeks of age, 60 male mice were randomly distributed in 6 groups (n=10 per group) and provided the different diets: LFD (Control, Low Dose and High Dose) or HFD (Control, Low Dose and High Dose). Mice were maintained for 8 weeks on their corresponding diets before phenotyping took place. During this time, body weight and food intake was monitored weekly.

A short description of data set [8]: Body lean and fat mass composition by Echo-MRI. The data set is classed as in vivo, mice. The conditions noted are these: 25 mg/(kg*day), FIG. 4. As for the experimental part:
Body lean and fat mass composition of 18 week-old mice fed on chow diet or high-fat diet, supplemented with either water (Veh) or Quinic Acid (25 mg/(kg*day) was measured by nuclear magnetic resonance using an Echo-Magnetic Resonance Imaging (Echo-MRI) system (Echo Medical System LCC).

The source of these data is US20180042875A1, “COMPOUND USE IN PROMOTING ENERGY EXPENDITURE” (NESTEC S.A., priority 2015, published 2018).

With `O=C(O)[C@]1(O)C[C@@H](O)[C@@H](O)[C@H](O)C1` [Quinic acid], in [1], the glucose tolerance entry is given as “moderately enhanced glucose tolerance”. Also, the insulin response entry in data set [2] (22 week-old chow-fed mice, i.p. insulin 0.3 U/Kg, FIG. 8) was “did not alter insulin response”; in data set [2] (22 week-old high-fat fed mice, i.p. insulin 0.75 U/Kg, FIG. 9), “did not significantly affect insulin response”. The basal glycemia result in data set [2] (22 week-old high-fat fed mice, FIG. 9) was “lowered basal glycemia”. In addition, in the data set on maltase, the effect on maltase entry is recorded as “no effect”. Also, the “endurance performance (treadmill)” value in [3] is “potentiates endurance performance”. Further, the “carbohydrate metabolism (total carbohydrate oxidation = 4.55*VO2-3.21*VCO2)” value in [4] is recorded as “enhanced”. For the same molecule, the “energy consumption (oxygen consumption)” value in data set [4] was “enhanced energy consumption”. Further, the “thermogenic function (rectal temperature)” value in data set [5] was “enhanced thermogenic function”. The effect on lipase result in the data set with lipase was “no effect”. Besides, at α-amylase, the “inhibition of α-amylase” value is recorded as “poor inhibitor”. In addition, the “food aversion (food intake)” value in data set [6] (mice on chow (low fat) diet, high dose 100 mg/(kg*day), 12-18 weeks of age, FIG. 1) is reported as “caused food aversion”; in data set [6] (mice on high fat diet (60% fat), low dose 25 or high dose 100 mg/(kg*day), FIG. 2), “did not cause food aversion”. In addition, the effect on sucrase result on sucrase is given as “no effect”. In addition, the body weight gain result in data set [7] (mice on high-fat diet) and in data set [7] (mice on low-fat (chow) diet) was “reduced weight gain” throughout. The “fat deposition (fat mass, Echo-MRI)” value in [8] (18 week-old mice on chow diet) and in data set [8] (18 week-old mice on high-fat diet) was “reduced fat deposition” in each case.
